We go through one compound from US7560473B2 (Institute of Pharmacology and Toxicology Academy of …, priority 2001, dated 2009).

Series [1] concerns rats anesthetized with pentobarbital sodium. The series is described as follows: Effects on blood pressure, heart rate, cardiac contraction and dilation in rats anesthetized with pentobarbital sodium. It is filed as in vivo, Wistar rats. The arrangement: unit not given here. As to conditions: change after injection through femoral vein, '+' = increase, all others = decrease. How it is done: Biological activity experiment 1. The effects of 16 compounds represented by formula I on blood pressure, heart rate, cardiac contraction and dilation in rats anesthetized with pentobarbital sodium.
The methods of biological activity experiment 1 were as follows: Male Wistar rats, weighing 280±30 g were purchased from the experimental animal center of Academy of Military Medical Sciences. Rats were anesthetized with pentobarbital sodium (45 mg/kg) by peritoneal injection. A PE50 polyethylene catheter was inserted into the left ventricle through right carotid artery for cardiac function measurement with a pressure energe exchanger, wherein the signal is put into a SMUP-PC biosignal processing system. Cardiac functional parameters such as HR, LVSP, +dp/dtmax, −dp/dtmax and Vpm were recorded. Another two PE50 polyethylene catheters were inserted into the right femoral artery and vein respectively for blood pressure measurement wherein the artery cathether was linked to a four-channel physiology recorder (RM-6000) through a MPU-0.5A Type pressure energe exchanger, which recorded SBP, DBP and MBP, while the vein catheter was used for compound administration. The methods were described by Liu Wei et al: Liu Wei, Wang Hai, Xiao Wen-Bin. […] Bull Acad Mil Med Sci 1996;20(4):245˜248.

Series [2] deals with outward potassium currents of rat tail arterial SMCs. The series is described as follows: Whole cell recording of outward potassium currents in rat tail arterial SMCs. It is filed as cell-based, Wistar rats. As to conditions: X ± SD n = 5. An excerpt:
Biological activity experiments 6. The effects of novel compounds on potassium currents in isolated arterial vascular smooth muscle cells (SMCs).
The outward currents were, elicited in rat tail arterial SMCs by superfusing extracellular solution under whole cell recording configuration that the depolarizing pulse were applied from −30 mV to +100 mV with the holding potential of −40 mV in 100 ms, 10 mV clamp steps, a frequency of 5 KHz. The compounds were applied in the bath at the concentrations of 100 μmol L^−1. The amplitude of the outward potassium currents was recorded before and after compound application Values were expressed as means±SD. Statistical significance between two groups was evaluated by student's t-test for paired data * P<0.05 **P<0.01 vs control.
1. Preparation of single smooth muscle cells from rat tail arteries: Male Wistar rats (200-250 g) were killed by exsanguination. The tail artery was dissected out and transferred into cold physiological salt solution (PSS) of the following composition (in mM): NaCl 118.3, KCl 4.7, KH2PO4 1.2, MgSO4 1.2, NaHCO3 25.0, CaCl2 2.5, EDTA 0.026 and Glucose 5.0 pH7.4. With the use of a dissecting microscope, the connective tissues were removed and the artery was cut open longitudinally. Endothelium was removed carefully with a cotton swab then the artery was cut into segments with 1 mm long and placed in 4° C. the extracellular solution containing (in mM) NaCl 130, KCl 5, MgCl2 1.2, HEPES 10, Glucose 10, pH7.2 for 20 min. After this incubation, the medium was changed to enzyme solution which was composed of collagenase I (1 mg ml^−1), papain (5 mg ml^−) and bovine serum albumin (2 mg ml^−1). The tissues, were incubated in this solution for 40 min, and then rinsed three times triturated using a fire-polished Pasteur pipette until the medium turned cloudily. The cell suspension was stored in the refrigerator at 4° C.
3. Whole cell recordings: A bath dish with the smooth muscle cells (SMCs) attached and superfused with the extracellular solution at a flow rate of 2 ml min^−1 was mounted onto the stage of an inverted-phase contrast microscope. The microelectrodes having a resistance of (5-8 MΩ) were made from boroscilicate thin-wall glass capillaries, using an automatic multiple-stage, electronic puller (PP830 Japan) and then heat-polished. After establishing a high resistance seal, the patch membrane was disrupted by negative pressure. A commercial patch clamp amplifier (Axon 200B) was used to generate and apply voltages and sample current signals from the cell.

Where [3] appears, read: mean, n = 3~5, doses mg/kg: 2, 8, 12: 10, 3-7, 9-11, 40-44: 5.

With `CCCNC(C)(C)C(C)C` [compound 5, N-propyl-2,3-dimethyl-2-butylamine], the melting point was in the range of 183 to 185 °C. Further, in series [1] (n = 3~5, doses mg/kg: 2, 8, 12: 10, 3-7, 9-11, 40-44: 5), the “MBP: mean blood pressure” value was found to be 28. Besides, in series [1] (setting [3]), the “DBP: diastolic blood pressure” value was found to be 25, the “HR: heart rate” value came out at 78, the “LVSP: left ventricular systolic pressure” value is on record as 162 and the “SBP: systolic blood pressure” value is 34. In series [1] (setting [3]), the “Vpm: the physiological velocity of contractile element shorting” value amounted to 0.58 and the “−dp/dtmax: the maximal rate of the decrease of left ventricular pressure” value was determined as 187. The “Currents, + Compound” value in series [2] (outward potassium current amplitude after compound 100 μmol L^−1 in the bath) came to 0.67 ± 0.30 nA. Also, in series [2] (outward potassium current amplitude before compound application, same cells), the “Currents, Control (before compound application)” value was determined as 0.65 ± 0.30 nA.

As a reminder, the melting point is the temperature, or range, at which the solid turns liquid.
